Earlier results in patent US7459223B2, “Electrochemical methods for generation of a biological proton motive force” (Board of Trustees of Michigan State University, priority 1998, dated 2008).
Read-outs that look alike come from different tables or passages of the source.

Settings: cited from earlier work

| Molecule | E0′ (redox potential) (Table 1, redox mediators) | E0′ (redox potential) |
| --- | --- | --- |
| NC(=O)c1ccc[n+]([C@@H]2O[C@H](COP(=O)(O)OP(=O)(O)OC[C@H]3O[C@@H](n4cnc5c(N)ncnc54)[C@H](O)[C@@H]3O)[C@@H](O)[C@H]2O)c1 [NAD^+] | −0.32 V | – |
| Menaquinone | −0.074 V | −0.073 volt |
